pEC50, pIC50: −log10 of the molar value.
How the values were obtained:
[1] = target: glucocorticoid receptor (GR); experiment: PathHunter GR translocation EFC assay, antagonist mode (pre-incubation before agonist); format: cell-based, human; conditions: pre-incubated 1 hour
Method: (§1) • 5 mM Potassium phosphate (dibasic) • 5 mM Potassium phosphate (monobasic) • 150 mM Sodium Chloride • 10 mM Magnesium Acetate • 2% CHAPS • pH6.9 Reagent Buffer/Substrate Formulation/Mixture Used in the Assay: • 1 part Galacton Star (ABI) • 5 parts Emerald II enhancer (ABI) • 19 parts Lysis buffer with 2% CHAPS (DX) Assay Protocol (96 Well Assay Format) • 1. 10,000 CHO-EA+GR-PL cells/well in a volume of 100 μL are plated in a Costar 96 well white, clear bottom plate and allowed to adhere overnight at 37° C./5% CO2 in an incubator. • 2. […] The reaction is incubated for 3-4 hours in a 37° C./5% CO2 incubator. • 4. To the reaction, equal aliquots from 50 mL of reagent solution are added to the wells. • 5. The plate is read on a standard multiwell plate reader that can measure luminescent activity. (e.g., Wallac Victor II or Packard Lumicount) after 30 and 60 minutes.
The glucocorticoid receptor (GR) was subcloned by using a pCMV-GR-PL construct generated by Panomics, Inc. as pcr template, adding Bgl 2 and Kpn I sites at the 5′ and 3′ ends respectively. The GR sequence was based on and confirmed to match the RefSeq NM_000176 for the human GR. […] This plasmid was transiently transfected into a stable CHO-K1+EA-NLS/NRS expressing cell line. Clonal selection for cells expressing both EA-NLS/NRS and GR-PL was performed as described above except the cells were subjected to double antibiotic selection (hygromycin and Geneticin/G418).
(§2) 10,000 cells/well were plated in a white Costar® 96 well plate and allowed to adhere overnight. […] To the reaction, 50 μL of cell lysis/substrate solution was added and the plate was read in a Wallace Victor 2 plate reader after 60 minutes. […] Antagonist studies were also performed using titrating amounts of geldenamycin (1-1000 nM) pre-incubated with the PathHunter cells for 1 hour prior to being treated with an agonist (at the EC80 concentration) for 3 hours and the EFC activity was measured.

[2] = target: T1, glucocorticoid receptor (GR) (Homo sapiens, UniProt P04150); experiment: PathHunter GR translocation EFC assay, agonist mode, chemiluminescent detection; format: cell-based; conditions: CHO-EA+GR-PL (PathHunter) cells, agonist 3 hours, plate read after 60 minutes, FIG. 1
T1 construct: expressed in transfected cells; host or cells: CHO-K1 stably expressing EA-NLS/NRS (CHO-EA+GR-PL, 'PathHunter' cells)
T1 sequence (P04150 1-777): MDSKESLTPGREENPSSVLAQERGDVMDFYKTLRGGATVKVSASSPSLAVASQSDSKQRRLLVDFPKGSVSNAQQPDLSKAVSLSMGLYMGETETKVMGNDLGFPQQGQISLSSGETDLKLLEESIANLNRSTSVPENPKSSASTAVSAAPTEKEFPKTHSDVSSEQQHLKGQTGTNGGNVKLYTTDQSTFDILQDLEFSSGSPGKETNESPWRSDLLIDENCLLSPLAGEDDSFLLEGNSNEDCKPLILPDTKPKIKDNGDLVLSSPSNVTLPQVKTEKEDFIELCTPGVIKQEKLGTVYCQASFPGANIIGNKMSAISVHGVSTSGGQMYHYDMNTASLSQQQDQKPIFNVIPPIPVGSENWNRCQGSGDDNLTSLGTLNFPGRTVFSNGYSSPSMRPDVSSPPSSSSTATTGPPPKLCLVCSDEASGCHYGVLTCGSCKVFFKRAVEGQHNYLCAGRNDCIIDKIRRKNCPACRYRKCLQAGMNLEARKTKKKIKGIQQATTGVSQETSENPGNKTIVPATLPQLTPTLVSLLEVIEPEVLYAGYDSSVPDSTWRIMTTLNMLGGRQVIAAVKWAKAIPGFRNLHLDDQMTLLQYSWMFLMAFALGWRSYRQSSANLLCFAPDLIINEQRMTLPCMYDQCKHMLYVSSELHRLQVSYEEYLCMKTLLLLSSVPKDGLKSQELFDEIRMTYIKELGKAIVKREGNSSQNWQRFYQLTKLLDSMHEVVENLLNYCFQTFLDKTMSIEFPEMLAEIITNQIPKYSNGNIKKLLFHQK
Method: as §1, with “minutes. […]” for “minutes.”
as §2

Row | pIC50 ([1]; then 1 μM hydrocortisone as agonist for 3 hours) | pIC50 ([1]; then 1 μM prednisolone as agonist for 3 hours) | pIC50 ([1]; then dexamethasone treatment (EC80 concentration) for 3 hours, FIG. 2) | pEC50 [2] | SMILES
1 | 7.62 | 7.65 | 7.94 |  | COC1=C2C[C@@H](C)C[C@H](OC)[C@H](O)[C@@H](C)/C=C(\C)[C@H](OC(N)=O)[C@@H](OC)/C=C\C=C(/C)C(=O)NC(=CC1=O)C2=O [geldenamycin]
2 |  |  |  | 7.20 | C[C@]12C=CC(=O)C=C1CC[C@H]1[C@@H]3C[C@@H](O)[C@](O)(C(=O)CO)[C@@]3(C)C[C@H](O)[C@@]12F [triamcinolone]
